Literature values as cited in patent publication US20150139938A1, “Methods and Compositions for Improving Pial Collateral Circulation and Treating Blood Clotting Disorders” (Ohio State Innovation Foundation, priority 2012, published 2015).

Tested on: stroke-induced lesion in the brain of spontaneously hypertensive rats
Conditions: orally supplemented, earlier work of the inventors

CC(C)=CCC/C(C)=C/CC/C(C)=C/CC[C@]1(C)CCc2c(C)c(O)c(C)c(C)c2O1 [αTCT, α-tocotrienol]
protection against stroke-induced lesion in the brain: protects
